Measurements taken from patent publication US20090012005A1, “Use of an angiotensin IV antagonist to treat insulin resistance or cardiovascular risk related to metabolic syndrome” (priority 2007, published 2009).
Entries after “also recorded” stand apart in the source; their conditions may differ. Square brackets hold non-standard residues; d marks the D form. Peptide text beside a SMILES is read from it. * marks the point of attachment. ξ: configuration not given here. β3hF = N[C@H](CC(=O)O)Cc1ccccc1; Ile(3ξ) = CCC(C)[C@H](N)C(=O)O; X1 = CC(C)C(CN)C(=O)*

Experiments:
[1] = tested on: angiotensinogen (AGT) and AT1 receptor (AT1R) expression in human vascular smooth muscle cells; experiment: expression of angiotensinogen and AT1 receptors (mRNA) in primary human vascular smooth muscle cell cultures; format: cell-based; conditions: for inhibition of the angiotensinogen (and AT1 receptor) response to angiotensin IV: 100 nM angiotensin IV, antagonist at increasing concentrations, given 30 minutes before angiotensin IV (FIG. 3)
Experimental: This effect may be measured by analyzing messenger RNA as well as the corresponding proteins.
Inhibition of these effects of angiotensin IV by candidate compounds is the foundation of the model. These cellular models encompass a screening approach as well as quantitative approaches. Angiotensin IV is used at a concentration of 100 nM, a concentration at which its binding to angiotensin II receptors is minimal.
(§1) The inventors used primary cultures and vascular muscle smooth cell lines of various species (man, rat, mouse); all cell lines in which angiotensin IV exerts stimulatory effects on the expression of angiotensinogen and angiotensin II AT1 receptors may be used. The confluent smooth muscle cells are placed in a serum-free culture medium (human vascular smooth muscle medium 2 from Promocell, or any other equivalent medium), in order to block their multiplication and to synchronize them. After 24 hours of habituation in this culture medium, the medium is replaced by fresh medium to which the various test substances are added according to the order adapted to the experimental protocol. Measurements are taken after 24 hours of treatment in the case of analyses of angiotensinogen and AT1 receptor expression. The antagonists are applied to the cells 30 minutes before angiotensin IV. The cells are exposed to 100 μU/ml of insulin to measure glucose uptake.
The results are the mean of pairs of measurements taken in human vascular smooth muscle cells from six patients.

[2] = tested on: human vascular smooth muscle cells; experiment: insulin-induced 3H-deoxyglucose uptake in human vascular smooth muscle cells; format: cell-based; conditions: for amplitude of maximum effect / lower plateau: inhibition of insulin-induced deoxyglucose uptake, 4-parameter logistic regression (FIG. 4); for reversion of the inhibition by angiotensin IV of insulin-induced glucose uptake: antagonist pretreatment, cells from five patients (FIG. 5)
Description: This effect by angiotensin IV is not blocked by angiotensin II AT1 receptor antagonists or by angiotensin II AT2 receptor antagonists.
Angiotensin IV inhibits insulin-induced glucose uptake in vascular smooth muscle cells by a mechanism independent of angiotensin II AT1 and AT2 receptors.
as §1
The results are the mean of pairs of measurements taken in cells from six patients.

Molecule | effect on IRAP expression [1] | effect on expression of angiotensinogen and AT1 receptors ([1]; independent of AT1 receptors (FIG. 2)) | amplitude of maximum effect [2] | lower plateau [2] | inhibition of the angiotensinogen (and AT1 receptor) response to angiotensin IV [1] | reversion of the inhibition by angiotensin IV of insulin-induced glucose uptake [2]
CC[C@H](C)[C@H](NC(=O)[C@H](Cc1ccc(O)cc1)NC(=O)[C@@H](N)C(C)C)C(=O)N[C@@H](Cc1cnc[nH]1)C(=O)N1CCC[C@H]1C(=O)N[C@@H](Cc1ccccc1)C(=O)O [angiotensin IV, Val-Tyr-Ile-His-Pro-Phe] | reduces | stimulating | 58.0%±2.3% | 41.9±1.4 |  | 
CCC(C)[C@H](NC(=O)[C@H](Cc1ccc(O)cc1)NC(=O)C(CN)C(C)C)C(=O)N[C@@H](Cc1c[nH]cn1)C(=O)N1CCC[C@H]1C(=O)N[C@H](CC(=O)O)Cc1ccccc1 (stereo partly drawn) [compound AL-11, H-β^2hVal-Tyr-Ile-His-Pro-β^3hPhe-OH] (X1-Y[Ile(3ξ)]HP[β3hF]-OH) |  |  |  |  | inhibition; also recorded: much more powerful in preventing the response | reversion
CC(C)[C@H](N)CN[C@@H](Cc1ccc(O)cc1)C(=O)N[C@H](CN[C@@H](Cc1c[nH]cn1)C(=O)N1CCC[C@H]1C(=O)N[C@@H](Cc1ccccc1)C(=O)O)C(C)C [divalinal, N-Val-(CH2—NH)-Tyr-Val(CH2—NH)-His-Pro-Phe] |  |  |  |  | inhibition; also recorded: weaker depressor of the maximum response | reversion
Angiotensin II: angiotensin peptide hormone acting on AT1 and AT2 receptors, used for comparison (DRVYIHPF; Angiotensin-2; UniProt P01019 25-32, looked up) |  |  | 42.2%±6.4% | 56.3±4.5 |  | 
LVV-hemorphin-7 |  |  |  |  | no activity | no activity
